Measurements reported in patent publication US12570661B2, “Isoform-specific aldehyde dehydrogenase inhibitors” (The Board of Trustees of the Leland Stanford Junior …, priority 2020, dated 2026).
One block for each molecule: values may come before it.

Legend:
[1] = tested on: 5-FU-resistant SW480 cells; assay: Spheroid growth of 5-FU-resistant versus parental SW480 cells; format: cell-based, human; settings: spheroid culture
Experimental: The parental SW480 cells were cultured in RPMI-1640 medium containing 10% FBS, 100 U/mL penicillin, 100 μg/mL streptomycin, and 1 μM 5-FU for two weeks. The 5-FU concentration in the culture medium was then increased to 5 μM and after another two weeks raised further to 10 μM. The resulting 5-FU-resistant SW480 cells were maintained in culture medium with 10 μM 5-FU.
To prepare Matrigel-coated culture plates, 96-well and 24-well plates were placed on ice and coated with 25 μL or 300 μL, respectively, of Matrigel matrix (Corning, LDEV-free) that had been thawed overnight at 4° C. The plates were then placed in a 37° C. incubator for 30 min to allow the Matrigel to solidify. […]
SW480 or HCT116 cells were seeded into regular or Matrigel-coated 96-well plates at a density of 1000 cells/well. […] Each culture was maintained for 7 days, and then cell viabilities were measured using a CellTiter-Glo 3D Cell Viability Assay kit (Promega). […] A 150-μL aliquot from each well was then transferred into a white opaque 96-well assay plate (flat-bottom and non-treated; Corning Costar) and luminescence intensities were measured with a Veritas microplate luminometer (Turner BioSystems).

SW480 cells (adherent) = assay: Cell viability assay, adherent SW480 cultures; format: cell-based, human; settings: Homo sapiens, SW480, 168 h; adherent culture, 7 days
Experimental: SW480 or HCT116 cells were seeded into regular or Matrigel-coated 96-well plates at a density of 1000 cells/well. The cells were cultured in the corresponding adherent or spheroid culture medium (200 μL/well) containing the designated compounds or an equivalent amount of DMSO vehicle. Each culture was maintained for 7 days, and then cell viabilities were measured using a CellTiter-Glo 3D Cell Viability Assay kit (Promega). Briefly, 100 μL of the culture medium was removed from each well and replaced with 100 μL 3D Cell Assay reagent. The cells in each well were next homogenized by vigorous pipetting, and the plate was incubated for 10 min at room temperature to stabilize the chemiluminescent signal. A 150-μL aliquot from each well was then transferred into a white opaque 96-well assay plate (flat-bottom and non-treated; Corning Costar) and luminescence intensities were measured with a Veritas microplate luminometer (Turner BioSystems).

NIH-3T3 cells = assay: Seahorse oxygen-consumption-rate assay (NIH3T3); format: cell-based, murine; settings: Mus musculus
ALDH2 = target: T1, ALDH2 (Homo sapiens, UniProt P05091); assay: ALDH2 enzyme kinetics assay; format: biochemical; settings: 50-μM compound concentration
T1 construct: made in house
T1 sequence (P05091 18-517): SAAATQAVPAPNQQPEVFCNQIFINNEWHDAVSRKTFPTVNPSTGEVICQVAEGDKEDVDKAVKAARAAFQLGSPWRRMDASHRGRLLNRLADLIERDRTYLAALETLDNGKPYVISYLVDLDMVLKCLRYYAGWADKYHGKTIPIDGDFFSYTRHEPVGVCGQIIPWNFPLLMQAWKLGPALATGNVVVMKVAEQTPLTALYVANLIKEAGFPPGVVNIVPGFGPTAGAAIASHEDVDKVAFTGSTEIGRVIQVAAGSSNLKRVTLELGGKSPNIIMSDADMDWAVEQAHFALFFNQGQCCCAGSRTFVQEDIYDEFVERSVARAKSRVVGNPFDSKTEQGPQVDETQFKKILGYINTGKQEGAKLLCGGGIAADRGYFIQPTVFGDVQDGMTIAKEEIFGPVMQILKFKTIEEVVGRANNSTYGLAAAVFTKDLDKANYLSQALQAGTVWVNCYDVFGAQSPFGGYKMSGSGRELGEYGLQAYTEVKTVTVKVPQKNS
Experimental: (§1) Cloning, expression, and purification of human recombinant ALDH1A1, ALDH1A3, ALDH2, ALDH3A1, ALDH3A2, ALDH4A1, ALDH5A1 and ALDH7A1 isozymes were conducted as described previously (Chen, C. H. et al. (2015) Proc. Natl. Acad. Sci. U.S.A. 112, 3074-3079). Human ALDH1A2 (Origene, SC109995) and ALDH1B1 (T. Hurley, Indiana University) plasmids were cloned into the pET-15b expression vector (Novagen, 69661-3) containing an N-terminal hexahistidine tag. The mitochondria-targeting sequence of ALDH1B1 was also removed. […] The protein concentration for each fraction was measured (500 μL elution volume was collected as one fraction and was immediately mixed with 500 μL glycerol. The protein concentration for each fraction was measured (600 nm Protein Assay Reagent; Thermo Fisher Scientific), and protein-containing fractions were diluted with an equal volume of glycerol and stored at −80° C. Samples from each step were also collected for SDS-PAGE gel analysis. For ALDH1B1 protein co-expression with chaperones, pET-15b-ALDH1B1 and GroEL/GroES (Addgene, plasmid pBB541) plasmids were co-transformed into competent BL21 E. coli cells, which were subsequently grown in 1 L of Luria-Bertani medium containing 100 μg/mL ampicillin and 50 μg/mL spectinomycin at 37° C. […]

ALDH1A3 = target: T2, ALDH1A3 (Homo sapiens, UniProt P47895); assay: ALDH1A3 enzyme kinetics assay; format: biochemical; settings: enzyme kinetics assays, 1-μM dose
T2 construct: made in house
T2 sequence (P47895 1-512): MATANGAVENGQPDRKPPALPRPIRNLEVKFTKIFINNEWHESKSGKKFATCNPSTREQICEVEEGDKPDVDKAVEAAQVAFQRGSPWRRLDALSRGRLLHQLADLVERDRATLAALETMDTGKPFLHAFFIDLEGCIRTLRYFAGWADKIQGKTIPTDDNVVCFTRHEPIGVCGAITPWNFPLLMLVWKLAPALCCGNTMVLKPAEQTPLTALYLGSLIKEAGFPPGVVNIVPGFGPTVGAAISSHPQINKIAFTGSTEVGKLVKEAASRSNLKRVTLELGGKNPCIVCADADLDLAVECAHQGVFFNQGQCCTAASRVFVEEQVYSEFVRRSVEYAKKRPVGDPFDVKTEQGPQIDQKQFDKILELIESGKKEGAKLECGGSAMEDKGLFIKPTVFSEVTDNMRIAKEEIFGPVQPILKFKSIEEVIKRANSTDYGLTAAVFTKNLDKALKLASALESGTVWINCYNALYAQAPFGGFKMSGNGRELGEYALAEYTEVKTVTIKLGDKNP
Experimental: as §1

ALDH1B1 = target: T3, ALDH1B1 (Homo sapiens, UniProt P30837); assay: ALDH1B1 enzyme kinetics assay (NADH fluorescence, acetaldehyde substrate); format: biochemical; parameters: made in house; host or cells: E. coli BL21 (optionally co-expressed with GroEL/GroES); settings: enzyme kinetics assays against ALDH isoforms
T3 sequence (P30837 18-517): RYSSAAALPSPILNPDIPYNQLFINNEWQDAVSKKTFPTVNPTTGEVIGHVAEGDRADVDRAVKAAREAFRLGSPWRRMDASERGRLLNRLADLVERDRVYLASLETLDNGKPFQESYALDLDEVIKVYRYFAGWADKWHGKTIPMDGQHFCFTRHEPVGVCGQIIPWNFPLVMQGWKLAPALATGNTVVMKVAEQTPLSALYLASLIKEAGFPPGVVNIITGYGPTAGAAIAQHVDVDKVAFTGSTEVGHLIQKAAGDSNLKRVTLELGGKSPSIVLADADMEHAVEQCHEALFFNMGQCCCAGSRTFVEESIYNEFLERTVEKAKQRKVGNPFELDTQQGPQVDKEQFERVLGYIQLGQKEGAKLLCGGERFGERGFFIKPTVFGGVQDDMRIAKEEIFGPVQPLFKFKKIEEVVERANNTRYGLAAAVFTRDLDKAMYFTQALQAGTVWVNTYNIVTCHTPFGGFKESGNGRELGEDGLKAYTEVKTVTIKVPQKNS
Experimental: Cloning, expression, and purification of human recombinant ALDH1A1, ALDH1A3, ALDH2, ALDH3A1, ALDH3A2, ALDH4A1, ALDH5A1 and ALDH7A1 isozymes were conducted as described previously (Chen, C. H. et al. (2015) Proc. Natl. Acad. Sci. U.S.A. 112, 3074-3079). Human ALDH1A2 (Origene, SC109995) and ALDH1B1 (T. Hurley, Indiana University) plasmids were cloned into the pET-15b expression vector (Novagen, 69661-3) containing an N-terminal hexahistidine tag. The mitochondria-targeting sequence of ALDH1B1 was also removed. For protein expression without chaperones, the pET-15b based plasmids were transformed into competent BL21 E. coli cells, which were subsequently grown in 1 L of Luria-Bertani medium containing 100 μg/mL ampicillin at 37° C. Once the OD600 value reached 0.6, the culture was transferred to 16° C. and 0.5 mM isopropyl β-d-1-thiogalactopyranoside was introduced to induce protein expression overnight. The bacteria were then pelleted by centrifugation (3000×g, 4° C. for 30 rain) and harvested. 40 mL BugBuster Master Mix buffer (MilliporeSigrna) containing a protease inhibitor cocktail (cOmplete; Roche) was added, and the cells were lysed by mechanically rolling the suspension at room temperature for 25 min. The lysate was centrifuged (16000×g, 4° C. for 30 min), and the soluble fraction was collected and mixed with 2 mL of Ni-NTA Superflow resin (Qiagen). After the mixture was avowed to rock at 4° C. for 1 h, it was used to create a 10-mL gravity column, which was sequentially treated with 40 mL of wash buffer 1 (20 mM sodium phosphate, 500 mM NaCl, 1 mM DTT, 20 mM imidazole, 5% glycerol, pH 7.4) and 25 mL of wash buffer 2 (20 mM sodium phosphate, 500 mM NaCl, 1 mM DTT, 40 mM imidazole, 5% glycerol, pH 7.4). The hexahistidine-tagged protein was then recovered by treated the column with 5 mL elution buffer (20 mM sodium phosphate, 500 mM NaCl, 1 mM DTT, 400 mM imidazole, 5% glycerol, pH 7.4) and collecting 500-μL fractions. The protein concentration for each fraction was measured (500 μL elution volume was collected as one fraction and was immediately mixed with 500 μL glycerol. The protein concentration for each fraction was measured (600 nm Protein Assay Reagent; Thermo Fisher Scientific), and protein-containing fractions were diluted with an equal volume of glycerol and stored at −80° C. Samples from each step were also collected for SDS-PAGE gel analysis. For ALDH1B1 protein co-expression with chaperones, pET-15b-ALDH1B1 and GroEL/GroES (Addgene, plasmid pBB541) plasmids were co-transformed into competent BL21 E. coli cells, which were subsequently grown in 1 L of Luria-Bertani medium containing 100 μg/mL ampicillin and 50 μg/mL spectinomycin at 37° C. The hexahistidine-tagged ALDH1B1 protein was then expressed and purified as described above.
To evaluate compound activities against ALDH isoforms, reaction mixtures consisting of enzyme assay buffer (100 mM sodium phosphate, 1 mM MgCl2, pH 8.0) and 0.1% DMSO, 1 mM β-mercaptoethanol, 1 mM NAD^+, and the bacterially expressed protein were prepared in white opaque 96-well assay plates (100 μL/well, flat-bottom and non-treated; Corning Costar). 5 μg/mL ALDH enzyme was used for single-dose (1, 10, 50 μM) compound test, and 1 μg/mL ALDH enzyme was used for IC50s determination. Acetaldehyde was then added to each well to achieve an initial substrate concentration of 1 mM, and the resulting enzymatic activity was measured based on NADH fluorescence. The fluorescence signal was read over the course of 10 min on a SpectraMax M2e microplate reader (340-nm excitation and 460-nm emission; Molecular Devices) operated by SoftMax Pro software. Compound activities were normalized to a DMSO control, and dose-response inhibition curves were fitted with four-parameter non-linear regression using Prism software. […]

SMILES: O=c1[nH]cc(F)c(=O)[nH]1 [Compound 5-FU, 5-fluorouracil]
loss of sensitivity of 5-FU-resistant SW480 line versus parental line [1]: 50 fold

SMILES: c1ccc(-c2ccc(-c3cn(C4CCCCC4)c4[n+]3CCCCC4)cc2)cc1 [Imidazolium 53]
GI50 (SW480 cells (adherent)): 820 nM
IC50 (NIH-3T3 cells): 170 nM

Second part, the molecule after the results:

inhibition of ALDH2 activity (ALDH2): only partially suppressed
SMILES: C#CCOc1ccc(-n2cc(-c3ccc(N=[N+]=[N-])cc3)[n+]3c2CCCCC3)cc1 [Imidazolium 3]

ALDH1A3 inhibition / isoform selectivity (in words) (ALDH1A3): ALDH1A3-specific inhibitor
SMILES: CCOc1ccc(-n2cc(-c3ccc(-c4ccc(C(=O)OC)cc4)cc3)[n+]3c2CCCCC3)cc1 [Imidazolium 46]

ALDH1A3 inhibition / isoform selectivity (in words) (ALDH1A3): inhibitor of both ALDH1B1 and ALDH1A3
ALDH1B1 inhibition / isoform selectivity (in words) (ALDH1B1): inhibitor of both ALDH1B1 and ALDH1A3
SMILES: COc1ccccc1-n1cc(-c2ccc(-c3ccc([N+](=O)[O-])cc3)cc2)[n+]2c1CCCCC2.[Br-] [Imidazolium 10]
